Paper PMC6150173, “Tryptophan-Containing Cyclic Decapeptides with Activity against Plant Pathogenic Bacteria” (Molecules : A Journal of Synthetic Chemistry and Natural …, 2017)
Peptide text beside a SMILES is read from it.

What was measured:
Type in all cases: cell-based
[1] = tested on: Xanthomonas axonopodis pv. vesicatoria 2133-2; conditions: Table S1, MIC range
Description: (§1) Erwinia amylovora PMV6076 (Institut National de la Recherche Agronomique, Angers, France), Pseudomonas syringae pv. syringae EPS94 (Institut de Tecnologia Agroalimentària, Universitat de Girona, Spain), and Xanthomonas axonopodis pv. vesicatoria 2133-2 (Instituto Valenciano de Investigaciones Agrarias, Valencia, Spain) were used as bacterial strains. They were stored and cultivated as previously described.
(§2) The minimum inhibitory concentration (MIC) was analyzed as previously described at 0.8, 1.6, 3.1, 6.2, 12.5, 25 and 50 μM [20].

[2] = tested on: Pseudomonas syringae pv. syringae EPS94; assay: Antibacterial activity (MIC), in vitro growth inhibition; conditions: Table S1, MIC range
Description: as §1, §2

[3] = tested on: erythrocyte suspensions of human blood; assay: Hemolytic activity, hemoglobin release; conditions: human blood erythrocytes 5% v/v, absorbance 540 nm, percentage compared to melittin, three replicates; for Hemolysis (%) at 50 µM: peptide 50 μM (table prints 50 µM); for Hemolysis (%) at 125 µM: peptide 125 μM (table prints 125 µM)
Description: The hemolytic activity of the compounds was evaluated at 50 and 125 μM by determining hemoglobin release from erythrocyte suspensions of human blood (5% v/v) (Oxoid) using absorbance at 540 nm, as previously described. Three replicates for each peptide concentration were used.

| SMILES | MIC Xav [1] [µM] | MIC Pss [2] [µM] | Hemolysis (%) at 50 µM [3] [%] | Hemolysis (%) at 125 µM [3] [%] |
| --- | --- | --- | --- | --- |
| CC(C)C[C@@H]1NC(=O)[C@H](CCCCN)NC(=O)[C@H](Cc2c[nH]c3ccccc23)NC(=O)[C@H](CCCCN)NC(=O)[C@H](CCCCN)NC(=O)[C@H](CC(C)C)NC(=O)[C@H](CCCCN)NC(=O)[C@H](CC(C)C)NC(=O)[C@H](CCC(N)=O)NC(=O)[C@H](CCCCN)NC1=O [BPC124W, c(LKLKKWKLKQ)] (cyclo(KKWKLKQLKL)) | 3.1 to 6.2 | 6.2 to 12.5 | 2 | 2 |
| CC(C)C[C@@H]1NC(=O)[C@H](CCCCN)NC(=O)[C@H](CCCCN)NC(=O)[C@H](CCCCN)NC(=O)[C@H](CCCCN)NC(=O)[C@H](CCC(N)=O)NC(=O)[C@H](CCCCN)NC(=O)[C@H](CC(C)C)NC(=O)[C@H](CC(C)C)NC(=O)[C@H](Cc2c[nH]c3ccccc23)NC1=O [BPC100W, c(KKKKLWLLKQ)] (cyclo(KKKKLWLLKQ)) | 6.2 to 12.5 | 12.5 to 25 | 19 | 27 |
| CC(C)C[C@@H]1NC(=O)[C@H](CCC(N)=O)NC(=O)[C@H](CCCCN)NC(=O)[C@H](CCCCN)NC(=O)[C@H](CCCCN)NC(=O)[C@H](Cc2c[nH]c3ccccc23)NC(=O)[C@H](CC(C)C)NC(=O)[C@H](CCCCN)NC(=O)[C@H](CC(C)C)NC(=O)[C@H](CCCCN)NC1=O [BPC156W, c(LKLKLWKKKQ)] (cyclo(KKKQLKLKLW)) | 3.1 to 6.2 | 6.2 to 12.5 | 1 | 2 |
| CC(C)C[C@@H]1NC(=O)[C@H](CCC(N)=O)NC(=O)[C@H](CC(C)C)NC(=O)[C@H](CCCCN)NC(=O)[C@H](CCCCN)NC(=O)[C@H](Cc2c[nH]c3ccccc23)NC(=O)[C@H](CCCCN)NC(=O)[C@H](CC(C)C)NC(=O)[C@H](CCCCN)NC(=O)[C@H](CCCCN)NC1=O [BPC092W, c(LKKLKWKKLQ)] (cyclo(KKLKWKKLQL)) | 3.1 to 6.2 | 6.2 to 12.5 | 2 | 3 |
| CC(C)C[C@@H]1NC(=O)[C@H](CCCCN)NC(=O)[C@H](Cc2c[nH]c3ccccc23)NC(=O)[C@H](CC(C)C)NC(=O)[C@H](CCCCN)NC(=O)[C@H](CC(C)C)NC(=O)[C@H](CCCCN)NC(=O)[C@H](CCCCN)NC(=O)[C@H](CCC(N)=O)NC(=O)[C@H](CCCCN)NC1=O [BPC112W, c(KKLKLWKLKQ)] (cyclo(KKLKLWKLKQ)) | 6.2 to 12.5 | 3.1 to 6.2 | 3 | 4 |
| CC(C)C[C@@H]1NC(=O)[C@H](CCC(N)=O)NC(=O)[C@H](CCCCN)NC(=O)[C@H](CCCCN)NC(=O)[C@H](CCCCN)NC(=O)[C@H](Cc2c[nH]c3ccccc23)NC(=O)[C@H](CCCCN)NC(=O)[C@H](CC(C)C)NC(=O)[C@H](CC(C)C)NC(=O)[C@H](CCCCN)NC1=O [BPC162W, c(LKLLKWKKKQ)] (cyclo(KKKQLKLLKW)) | 3.1 to 6.2 | 6.2 to 12.5 | 57 | 56 |
| CC(C)C[C@@H]1NC(=O)[C@H](CCCCN)NC(=O)[C@H](CC(C)C)NC(=O)[C@H](CC(C)C)NC(=O)[C@H](CCC(N)=O)NC(=O)[C@H](CCCCN)NC(=O)[C@H](CCCCN)NC(=O)[C@H](CCCCN)NC(=O)[C@H](Cc2c[nH]c3ccccc23)NC(=O)[C@H](CCCCN)NC1=O [BPC164W, c(LLKLKWKKKQ)] (cyclo(KKKQLLKLKW)) | 6.2 to 12.5 | 6.2 to 12.5 | 6 | 6 |
| CC(C)C[C@@H]1NC(=O)[C@H](CCCCN)NC(=O)[C@H](CC(C)C)NC(=O)[C@H](CC(C)C)NC(=O)[C@H](CCC(N)=O)NC(=O)[C@H](CC(C)C)NC(=O)[C@H](CCCCN)NC(=O)[C@H](CCCCN)NC(=O)[C@H](Cc2c[nH]c3ccccc23)NC(=O)[C@H](CCCCN)NC1=O [BPC196W, c(LLKLKWKKLQ)] (cyclo(KKLQLLKLKW)) | 1.6 to 3.1 | 3.1 to 6.2 | 2 | 3 |
| CC(C)C[C@@H]1NC(=O)[C@H](CCC(N)=O)NC(=O)[C@H](CCCCN)NC(=O)[C@H](CCCCN)NC(=O)[C@H](CCCCN)NC(=O)[C@H](Cc2c[nH]c3ccccc23)NC(=O)[C@H](CC(C)C)NC(=O)[C@H](CC(C)C)NC(=O)[C@H](CCCCN)NC(=O)[C@H](CCCCN)NC1=O [BPC152W, c(LKKLLWKKKQ)] (cyclo(KKKQLKKLLW)) | 6.2 to 12.5 | 6.2 to 12.5 | 1 | 3 |
| CC(C)C[C@@H]1NC(=O)[C@H](CCCCN)NC(=O)[C@H](CCCCN)NC(=O)[C@H](Cc2c[nH]c3ccccc23)NC(=O)[C@H](CCCCN)NC(=O)[C@H](CCCCN)NC(=O)[C@H](CCCCN)NC(=O)[C@H](CCCCN)NC(=O)[C@H](CCCCN)NC(=O)[C@H](CCC(N)=O)NC1=O [BPC202W, c(KKKKKWKKLQ)] (cyclo(KKKKKWKKLQ)) | 12.5 to 25 | 25 to 50 | 0 | 1 |
| CC(C)C[C@@H]1NC(=O)[C@H](CCC(N)=O)NC(=O)[C@H](CC(C)C)NC(=O)[C@H](CCCCN)NC(=O)[C@H](CCCCN)NC(=O)[C@H](Cc2c[nH]c3ccccc23)NC(=O)[C@H](CCCCN)NC(=O)[C@H](CCCCN)NC(=O)[C@H](CCCCN)NC(=O)[C@H](CCCCN)NC1=O [BPC190W, c(LKKKKWKKLQ)] (cyclo(KKKKWKKLQL)) | 12.5 to 25 | 25 to 50 | 1 | 3 |
| CC(C)C[C@@H]1NC(=O)[C@H](CCCCN)NC(=O)[C@H](CCCCN)NC(=O)[C@H](Cc2c[nH]c3ccccc23)NC(=O)[C@H](CCCCN)NC(=O)[C@H](CC(C)C)NC(=O)[C@H](CC(C)C)NC(=O)[C@H](CC(C)C)NC(=O)[C@H](CC(C)C)NC(=O)[C@H](CCC(N)=O)NC1=O [BPC200W, c(LLLLKWKKLQ)] (cyclo(KKLQLLLLKW)) | 3.1 to 6.2 | > 50 | 6 | 7 |
| CC(C)C[C@@H]1NC(=O)[C@H](CCCCN)NC(=O)[C@H](CCCCN)NC(=O)[C@H](Cc2c[nH]c3ccccc23)NC(=O)[C@H](CCCCN)NC(=O)[C@H](CCCCN)NC(=O)[C@H](CC(C)C)NC(=O)[C@H](CC(C)C)NC(=O)[C@H](CC(C)C)NC(=O)[C@H](CCC(N)=O)NC1=O [BPC188W, c(LLLKKWKKLQ)] (cyclo(KKLQLLLKKW)) | 12.5 to 25 | 6.2 to 12.5 | 33 | 48 |
| CC(C)C[C@@H]1NC(=O)[C@H](Cc2c[nH]c3ccccc23)NC(=O)[C@H](CCCCN)NC(=O)[C@H](CCCCN)NC(=O)[C@H](CCCCN)NC(=O)[C@H](CCCCN)NC(=O)[C@H](CCCCN)NC(=O)[C@H](CCC(N)=O)NC(=O)[C@H](CC(C)C)NC(=O)[C@H](CC(C)C)NC1=O [BPC058W, c(KKKKKWLLLQ)] (cyclo(KKKKKWLLLQ)) | 25 to 50 | 12.5 to 25 | 2 | 3 |
| CC(C)C[C@@H]1NC(=O)[C@H](CCCCN)NC(=O)[C@H](CCCCN)NC(=O)[C@H](Cc2c[nH]c3ccccc23)NC(=O)[C@H](CCCCN)NC(=O)[C@H](CC(C)C)NC(=O)[C@H](CCCCN)NC(=O)[C@H](CCCCN)NC(=O)[C@H](CCCCN)NC(=O)[C@H](CCC(N)=O)NC1=O [BPC186W, c(KKKLKWKKLQ)] (cyclo(KKKLKWKKLQ)) | 6.2 to 12.5 | 12.5 to 25 | 1 | 1 |
| CC(C)C[C@@H]1NC(=O)[C@H](CCCCN)NC(=O)[C@H](CCCCN)NC(=O)[C@H](CCC(N)=O)NC(=O)[C@H](CCCCN)NC(=O)[C@H](CCCCN)NC(=O)[C@H](CCCCN)NC(=O)[C@H](Cc2c[nH]c3ccccc23)NC(=O)[C@H](CC(C)C)NC(=O)[C@H](CC(C)C)NC1=O [BPC148W, c(KKLLLWKKKQ)] (cyclo(KKKQKKLLLW)) | 12.5 to 25 | 12.5 to 25 | 1 | 2 |
| CC(C)C[C@@H]1NC(=O)[C@H](CCC(N)=O)NC(=O)[C@H](CCCCN)NC(=O)[C@H](CCCCN)NC(=O)[C@H](CCCCN)NC(=O)[C@H](Cc2c[nH]c3ccccc23)NC(=O)[C@H](CCCCN)NC(=O)[C@H](CCCCN)NC(=O)[C@H](CC(C)C)NC(=O)[C@H](CC(C)C)NC1=O [BPC166W, c(LLLKKWKKKQ)] (cyclo(KKKQLLLKKW)) | 6.2 to 12.5 | 6.2 to 12.5 | 1 | 1 |
| CC(C)C[C@@H]1NC(=O)[C@H](CCCCN)NC(=O)[C@H](CCC(N)=O)NC(=O)[C@H](CCCCN)NC(=O)[C@H](CCCCN)NC(=O)[C@H](CCCCN)NC(=O)[C@H](Cc2c[nH]c3ccccc23)NC(=O)[C@H](CC(C)C)NC(=O)[C@H](CC(C)C)NC(=O)[C@H](CCCCN)NC1=O [BPC150W, c(KLKLLWKKKQ)] (cyclo(KKKQKLKLLW)) | 6.2 to 12.5 | 12.5 to 25 | 17 | 32 |
